# Like-named read-outs stand apart in the source and are kept apart here. *1 amine or outer side, *2 acyl side, *3 side chain or, on linkers, in order; H or OH if unused. Where a SMILES comes first, the peptide text is derived from it. [ ]: non-standard residue; d: D form. The star is where a group is joined. Oic = O=C(O)[C@@H]1C[C@@H]2CCCC[C@@H]2N1; X2 = CCC[C@H](N[*:1])C(=O)C(=O)[*:2]; Chg = N[C@H](C(=O)O)C1CCCCC1; Tle = CC(C)(C)[C@H](N)C(=O)O; Hiv = CC(C)[C@H](O)C(=O)O; NHcPr = C1CC1N*
# Tests used:
# [1] = system: Cells containing hepatitis C virus (HCV) replicon; test: HCV replicon cell assay (Taqman RT-PCR of HCV RNA); assay type: cell-based
# Method: HCV Replicon Cell Assay Protocol
# Cells containing hepatitis C virus (HCV) replicon were maintained in DMEM containing 10% fetal bovine serum (FBS), 0.25 mg per ml of G418, with appropriate supplements (media A).
# On day 1, replicon cell monolayer was treated with a trypsin:EDTA mixture, removed, and then media A was diluted into a final concentration of 100,000 cells per ml wit. 10,000 cells in 100 ul were plated into each well of a 96-well tissue culture plate, and cultured overnight in a tissue culture incubator at 37° C.
# On day 2, compounds (in 100% DMSO) were serially diluted into DMEM containing 2% FBS, 0.5% DMSO, with appropriate supplements (media B). The final concentration of DMSO was maintained at 0.5% throughout the dilution series.
# Media on the replicon cell monolayer was removed, and then media B containing various concentrations of compounds was added. Media B without any compound was added to other wells as no compound controls.
# Cells were incubated with compound or 0.5% DMSO in media B for 48 hours in a tissue culture incubator at 37° C. At the end of the 48-hour incubation, the media was removed, and the replicon cell monolayer was washed once with PBS and stored at −80° C. prior to RNA extraction.
# Culture plates with treated replicon cell monolayers were thawed, and a fixed amount of another RNA virus, such as Bovine Viral Diarrhea Virus (BVDV) was added to cells in each well. RNA extraction reagents (such as reagents from RNeasy kits) were added to the cells immediately to avoid degradation of RNA. Total RNA was extracted according the instruction of manufacturer with modification to improve extraction efficiency and consistency. Finally, total cellular RNA, including HCV replicon RNA, was eluted and stored at −80° C. until further processing.
# A Taqman real-time RT-PCR quantification assay was set up with two sets of specific primers and probe. One was for HCV and the other was for BVDV. Total RNA extractants from treated HCV replicon cells was added to the PCR reactions for quantification of both HCV and BVDV RNA in the same PCR well. Experimental failure was flagged and rejected based on the level of BVDV RNA in each well. The level of HCV RNA in each well was calculated according to a standard curve run in the same PCR plate. The percentage of inhibition or decrease of HCV RNA level due to compound treatment was calculated using the DMSO or no compound control as 0% of inhibition. The IC50 (concentration at which 50% inhibition of HCV RNA level is observed) was calculated from the titration curve of any given compound.
# [2] = molecular target: HCV NS3-NS4A protease (tNS3 with KK4A) (Hepatitis C virus genotype 1a, UniProt P27958); test: HCV Ki assay (HPLC microbore separation of 5AB substrate and products); assay type: biochemical
# Method: HPLC Microbore Method for Separation of 5AB Substrate and Products
# • Substrate: • NH2-Glu-Asp-Val-Val-(alpha)Abu-Cys-Ser-Met-Ser-Tyr-COOH
# A stock solution of 20 mM 5AB (or concentration of your choice) was made in DMSO w/ 0.2M DTT. This was stored in aliquots at −20 C.
# Buffer: 50 mM HEPES, pH 7.8; 20% glycerol; 100 mM NaCl
# Total assay volume was 100 μL
# The buffer, KK4A, DTT, and tNS3 were combined; distributed 78 μL each into wells of 96 well plate. This was incubated at 30 C for ˜5–10 min.
# 2.5 μL of appropriate concentration of test compound was dissolved in DMSO (DMSO only for control) and added to each well. This was incubated at room temperature for 15 min.
# Initiated reaction by addition of 20 μL of 250 μM 5AB substrate (25 μM concentration is equivalent or slightly lower than the Km for 5AB).
# Incubated for 20 min at 30 C.
# Terminated reaction by addition of 25 μL of 10% TFA
# Transferred 120 μL aliquots to HPLC vials
# Separated SMSY product from substrate and KK4A by the following method:
# Microbore Separation Method:
# Instrumentation: Agilent 1100
# • Degasser G1322A • Binary pump G1312A • Autosampler G1313A • Column thermostated chamber G1316A • Diode array detector G1315A Column:
# Phenomenex Jupiter; 5 micron C18; 300 angstroms; 150×2 mm; P/O 00F-4053-B0 • Column thermostat: 40 C • Injection volume: 100 μL • Solvent A=HPLC grade water+0.1% TFA • Solvent B=HPLC grade acetonitrile+0.1% TFA
# • Stop time: 17 min • Post-run time: 10 min.
# [3] = 50% inhibition of HCV RNA level, 48-hour incubation, HCV replicon cells, read-out: IC50
# HCV NS3-NS4A protease (tNS3 with KK4A), sequence (P27958 1027-1208): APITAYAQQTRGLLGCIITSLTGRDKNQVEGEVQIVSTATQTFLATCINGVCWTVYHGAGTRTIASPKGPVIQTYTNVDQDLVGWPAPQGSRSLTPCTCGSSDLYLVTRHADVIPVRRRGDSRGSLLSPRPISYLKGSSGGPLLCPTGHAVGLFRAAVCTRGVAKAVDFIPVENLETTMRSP
Compound,"IC50 [1, 3]",Ki [2],IC50 ([1]; 48 h)
CCC[C@H](NC(=O)[C@@H]1C[C@@H]2CCCC[C@@H]2N1C(=O)[C@@H](NC(=O)[C@@H](NC(=O)[C@@H](O)C(C)C)C1CCCCC1)C(C)(C)C)C(=O)C(=O)NC1CC1 [Compound 23a] (H-[Hiv][Chg][Tle][Oic][X2]-NHcPr),1000 to 5000 nM,< 500 nM,
CCC[C@H](NC(=O)[C@@H]1C[C@@H]2CCCC[C@@H]2N1C(=O)[C@@H](NC(=O)[C@@H](NC(=O)[C@@H]1Cc2ccccc2N1)C1CCCCC1)C(C)(C)C)C(=O)C(=O)NC1CC1 [Compound 46a],1000 to 5000 nM,< 500 nM,
CCC[C@H](NC(=O)[C@@H]1C[C@@H]2CCCC[C@@H]2N1C(=O)[C@@H](NC(=O)[C@@H](NC(=O)c1[nH]ncc1[N+](=O)[O-])C1CCCCC1)C(C)(C)C)C(=O)C(=O)NC1CC1 [Compound 13a],500 to 1000 nM,< 500 nM,
CCC[C@H](NC(=O)[C@@H]1[C@H]2CC[C@H](C2)N1C(=O)[C@@H](NC(=O)[C@@H](NC(=O)c1[nH]c(C)c(C)c1C(C)=O)C1CCCCC1)C(C)(C)C)C(=O)C(=O)NC1CC1 [Compound 65],< 500 nM,< 500 nM,
CCC[C@@H](NC(=O)[C@@H]1C[C@@H]2CCCC[C@@H]2N1C(=O)[C@@H](NC(=O)[C@@H](NC(=O)c1[nH]c(C)c(C)c1C(C)=O)C1CCCCC1)C(C)(C)C)C(=O)C(=O)NC1CC1 [Compound 41a],< 500 nM,1000 to 5000 nM,
CCC[C@H](NC(=O)[C@@H]1C[C@@H]2CCCC[C@@H]2N1C(=O)[C@@H](NC(=O)[C@@H](NC(=O)c1cc(C(C)(C)C)n[nH]1)C1CCCCC1)C(C)(C)C)C(=O)C(=O)NC1CC1 [Compound 16a],1000 to 5000 nM,< 500 nM,
CCC[C@H](NC(=O)[C@@H]1C[C@@H](Oc2ncc(Cl)cn2)CN1C(=O)[C@@H](NC(=O)[C@@H](NC(=O)c1[nH]c(C)c(C)c1C(C)=O)C1CCCCC1)C(C)(C)C)C(=O)C(=O)NC1CC1 [Compound 67],< 500 nM,< 500 nM,
CCCC(NC(=O)[C@@H]1C[C@@H]2CCCC[C@@H]2N1C(=O)[C@@H](NC(=O)[C@@H](NC(=O)c1[nH]c(C)c(C)c1C(C)=O)C1CCCCC1)C(C)(C)C)C(=O)C(=O)NC1CC1 (stereo partly drawn) [Compound 33a],< 500 nM,< 500 nM,
CCC[C@H](NC(=O)[C@@H]1C[C@@H]2CCCC[C@@H]2N1C(=O)[C@@H](NC(=O)[C@@H](NC(=O)c1[nH]c(C)c(C)c1C(C)=O)C1CCCCC1)C(C)(C)C)C(=O)C(=O)NC1CC1 [Compound 25a],< 500 nM,< 500 nM,
CCC[C@H](NC(=O)[C@@H]1C[C@@H]2CCCC[C@@H]2N1C(=O)[C@@H](NC(=O)[C@@H](NC(=O)c1ccccn1)C1CCCCC1)C(C)(C)C)C(=O)C(=O)NC1CC1 [Compound 30a],1000 to 5000 nM,500 to 1000 nM,
CCC[C@H](NC(=O)[C@@H]1C[C@@H]2CCCC[C@@H]2N1C(=O)[C@@H](NC(=O)[C@@H](NC(=O)c1cc(Cl)c(Cl)[nH]1)C1CCCCC1)C(C)(C)C)C(=O)C(=O)NC1CC1 [Compound 43a],< 500 nM,< 500 nM,
CCC[C@H](NC(=O)[C@@H]1C[C@@H]2CCCC[C@@H]2N1C(=O)[C@@H](NC(=O)[C@@H](NC(=O)c1[nH]c(C)c(C(C)=O)c1C#N)C1CCCCC1)C(C)(C)C)C(=O)C(=O)NC1CC1 [Compound 52a],< 500 nM,< 500 nM,
CCC[C@H](NC(=O)[C@@H]1C[C@@H]2CCCC[C@@H]2N1C(=O)[C@@H](NC(=O)[C@@H](NC(=O)c1cnccn1)C1CCCCC1)C(C)(C)C)C(=O)C(=O)NC1CC1 [Compound 10a],500 to 1000 nM,< 500 nM,
C=CCNC(=O)C(=O)[C@H](CCC)NC(=O)[C@@H]1C[C@@H]2CCCC[C@@H]2N1C(=O)[C@@H](NC(=O)[C@@H](NC(=O)c1cnccn1)C1CCCCC1)C(C)(C)C [Compound 51a],500 to 1000 nM,< 500 nM,
"CCC[C@H](NC(=O)[C@@H]1C[C@@H]2CCCC[C@@H]2N1C(=O)[C@@H](NC(=O)[C@@H](NC(=O)c1cc2cc(C(C)=O)ccc2[nH]1)C1CCCCC1)C(C)(C)C)C(=O)C(=O)NC1CC1 [Compound 40a, 5-Acetyl-1H-indole-2-carboxylic acid (cyclohexyl-{1-[2-(1-cyclopropylaminooxalyl-butylcarbamoyl)-octahydro-indole-1-carbonyl]-2,2-dimethyl-propylcarbamoyl}-methyl)-amide]",< 500 nM,< 500 nM,
CCC[C@H](NC(=O)[C@@H]1[C@@H](C(C)C)CCN1C(=O)[C@@H](NC(=O)[C@@H](NC(=O)c1[nH]c(C)c(C)c1C(C)=O)C1CCCCC1)C(C)(C)C)C(=O)C(=O)NC1CC1 [Compound 64],< 500 nM,< 500 nM,
CCC[C@H](NC(=O)[C@@H]1C[C@@H]2CCCC[C@@H]2N1C(=O)[C@@H](NC(=O)[C@@H](NC(=O)c1cc2cc(F)ccc2[nH]1)C1CCCCC1)C(C)(C)C)C(=O)C(=O)NC1CC1 [Compound 18a],< 500 nM,< 500 nM,
CCC[C@H](NC(=O)[C@@H]1C[C@@H]2CCCC[C@@H]2N1C(=O)[C@@H](NC(=O)[C@@H](NC(=O)C(=O)C(C)C)C1CCCCC1)C(C)(C)C)C(=O)C(=O)NC1CC1 [Compound 24a],1000 to 5000 nM,< 500 nM,
CCC[C@H](NC(=O)[C@@H]1C[C@@H]2CCCC[C@@H]2N1C(=O)[C@@H](NC(=O)[C@@H](NC(=O)c1[nH]c(C)c(C(C)=O)c1-c1ccccc1)C1CCCCC1)C(C)(C)C)C(=O)C(=O)NC1CC1 [Compound 53a],< 500 nM,< 500 nM,
CCC[C@H](NC(=O)[C@@H]1C[C@@H]2CCCC[C@@H]2N1C(=O)[C@@H](NC(=O)[C@@H](NC(=O)c1cc([N+](=O)[O-])c[nH]1)C1CCCCC1)C(C)(C)C)C(=O)C(=O)NC1CC1 [Compound 12a],< 500 nM,< 500 nM,
CCC[C@H](NC(=O)[C@@H]1C[C@@H]2CCCC[C@@H]2N1C(=O)[C@@H](NC(=O)[C@@H](NC(=O)c1cc(C)c(C(C)=O)[nH]1)C1CCCCC1)C(C)(C)C)C(=O)C(=O)NC1CC1 [Compound 37a],< 500 nM,< 500 nM,
CCC[C@H](NC(=O)[C@@H]1[C@H]2CCC[C@H]2CN1C(=O)[C@@H](NC(=O)[C@@H](NC(=O)c1[nH]c(C)c(C)c1C(C)=O)C1CCCCC1)C(C)(C)C)C(=O)C(=O)NC1CC1 [Compound 68],< 500 nM,< 500 nM,
CCC[C@H](NC(=O)[C@@H]1C[C@@H]2CCCC[C@@H]2N1C(=O)[C@@H](NC(=O)[C@@H](NC(=O)C(=O)Nc1ccccc1)C1CCCCC1)C(C)(C)C)C(=O)C(=O)NC1CC1 [Compound 21a],,< 500 nM,< 500 nM
CCC[C@H](NC(=O)[C@@H]1C[C@@H]2CCCC[C@@H]2N1C(=O)[C@@H](NC(=O)[C@@H](NC(=O)c1[nH]c(C)c(C(C)=O)c1C)C1CCCCC1)C(C)(C)C)C(=O)C(=O)NC1CC1 [Compound 29a],500 to 1000 nM,< 500 nM,
